Laboratory results as given in US11712466B2, “Vaccine composition” (TOHOKU UNIVERSITY, priority 2017, dated 2023).
“Also recorded” adds a separate entry of the source. Ends that are not written are not given here.

What was measured:
Lewis lung cancer cells = test: In vitro wound migration method with serum of immunized mouse (LLC); type: cell-based; conditions: 1% serum of mouse with increased anti-VASH2 titer after vaccine; 24 and 48 hours
Method: By using the serum derived from a mouse in which an increase in the antibody titer against the recombinant human VASH2 protein by administration of the MTG peptide vaccine was confirmed, the effect on the migration ability of various types of cancer cells was examined by an in vitro wound migration method. Mouse-derived Lewis lung cancer cells and human-derived RH30 rhabdomyosarcoma cells were added to a 6-well plate at 1.0×10^6 cells each. After 24 hours, a formed cell monolayer was wounded and linearly exfoliated. After the exfoliation, the medium was replaced with fresh 0.5% FBS+RPMI medium supplemented with 1% mouse serum. At 24 hours and 48 hours after the medium replacement, the image of the cell monolayer was captured using an IX71 inverted microscope (manufactured by Olympus Corporation), and a cell migration distance of each time zone was analyzed using ImageJ software. The analysis was carried out according to the following formula. Cell migration distance (%)={(A−B)/A}×100
A: Width of initial wound, B: Width of wound after 24 hours or 48 hours

mSnail = test: Gene expression in excised tumor tissue by real-time PCR, mSnail; type: in vivo, mouse; conditions: tumor excised two weeks after implantation
Method: The mouse implanted with the tumor cells in Example 2 was sacrificed two weeks after implantation of the tumor cells, and a tumor was excised from the right axillary subcutaneous region. By using RNeasy Plus Kit (Qiagen, Inc.), extraction of the total RNA from the excised tumor and purification thereof were carried out. By using the obtained total RNA as a template, cDNA was synthesized by reverse transcription reaction. The cDNA was analyzed by performing real-time PCR using a mixed solution of the obtained cDNA and SYBR green (TAKARA BIO, Inc.).

[1] = test system: mouse melanoma cells (B16F1); test: Subcutaneous implant model, tumor growth inhibitory effect (B16F1); type: in vivo; conditions: immunized C57BL/6J mice, cells implanted s.c. on day 29, measured 14 days after implantation
Method: After 2 weeks from the administration of each peptide vaccine and incomplete Freund's adjuvant in Example 1 (on day 29 after the initial peptide vaccine administration), mouse-derived tumor cells were implanted in an immunized mouse, whereby a subcutaneous implant model was prepared. Specifically, mouse lung cancer cells (Lewis lung cancer cells (LLC)) or mouse melanoma cells (B16F1) (all have C57BL/6J as a genetic background) cultured in a RPMI+10% FBS medium were collected by centrifugation, and a cell suspension (1.0×10^8 cells/mL) was prepared with a serum-free medium, and 0.1 mL (1.0×10^7 cells/animal) of the cell suspension was implanted in a right axillary subcutaneous region of a mouse using a 27G injection needle and a syringe, whereby a subcutaneous implant model of tumor cells was prepared.

[2] = test system: mouse lung cancer cells (LLC); test: Metastasis inhibitory effect in vivo, LLC injected through tail vein, lung metastatic lesion; conditions: 20 or 100 μg, day 21 after LLC injection
Method: 20 μg or 100 μg of KLH (control) and 20 μg or 100 μg of the peptide represented by SEQ ID NO: 4 conjugated with KLH (MTG peptide vaccine) were prepared with physiological saline so that the total amount was 100 μL, respectively, whereby KLH-mixed solutions were obtained. To each of the KLH-mixed solutions (100 μL), an equal amount of complete Freund's adjuvant or Alhydrogel (registered trademark) (Invitrogen) was added. The obtained mixture (200 μL) was intradermally (ID) administered to C57BL/6J male mice (n=5) aged 8 weeks, whereby initial immunization was carried out (0 day). Incidentally, in the intradermal administration, 200 μL was administered at a dose of 100 μL each to two sites. After 2 weeks from the administration (14 days), booster immunization was carried out by subcutaneously administering a mixture of each of the KLH-mixed solutions (100 μL) and an equal amount of incomplete Freund's adjuvant or Alhydrogel (registered trademark) to the mice. […] Further, at that time point, the blood was collected from each mouse, and the antibody titer of an antibody specific to the VASH2 protein was measured by ELISA. The mice were sacrificed on day 21 after the injection of LLC (49 days), and the lung metastatic lesion was analyzed (FIG. 7). […]

MTG peptide vaccine: MTG peptide MTGSAADTHR (SEQ ID NO: 4) conjugated with KLH as carrier by a glutaraldehyde method (also: conjugated with KLH by glutaraldehyde)
cell migration, mouse-derived Lewis lung cancer cells (Lewis lung cancer cells): migration inhibitory effect | expression of mSnail (epithelial-mesenchymal transition marker) in tumor tissue (mSnail): dose-dependent expression inhibitory effect; also recorded: significantly inhibited depending on the dose | tumor size (tumorigenesis), B16F1 melanoma cells [1]: marked inhibition of tumorigenesis; also recorded: marked inhibition of tumor growth | metastasis of cancer cells (lung metastatic lesion), LLC ([2]; Alhydrogel adjuvant): inhibited metastasis of cancer cells | metastasis of cancer cells (lung metastatic lesion), LLC ([2]; Freund's adjuvant): inhibited metastasis of cancer cells
